# In PMC6155738, “Antiparasitic Activity of Sulfur- and Fluorine-Containing Bisphosphonates against Trypanosomatids and Apicomplexan Parasites” (Molecules : A Journal of Synthetic Chemistry and Natural …, 2017):
# Biological target: T1, TgFPPS (Toxoplasma gondii, UniProt Q197X6)
# T1 construct: gene FPPS; bifunctional enzyme making FPP and GGPP; enzyme assay as in Szajnman et al., 2008
# T1 sequence (Q197X6 1-646): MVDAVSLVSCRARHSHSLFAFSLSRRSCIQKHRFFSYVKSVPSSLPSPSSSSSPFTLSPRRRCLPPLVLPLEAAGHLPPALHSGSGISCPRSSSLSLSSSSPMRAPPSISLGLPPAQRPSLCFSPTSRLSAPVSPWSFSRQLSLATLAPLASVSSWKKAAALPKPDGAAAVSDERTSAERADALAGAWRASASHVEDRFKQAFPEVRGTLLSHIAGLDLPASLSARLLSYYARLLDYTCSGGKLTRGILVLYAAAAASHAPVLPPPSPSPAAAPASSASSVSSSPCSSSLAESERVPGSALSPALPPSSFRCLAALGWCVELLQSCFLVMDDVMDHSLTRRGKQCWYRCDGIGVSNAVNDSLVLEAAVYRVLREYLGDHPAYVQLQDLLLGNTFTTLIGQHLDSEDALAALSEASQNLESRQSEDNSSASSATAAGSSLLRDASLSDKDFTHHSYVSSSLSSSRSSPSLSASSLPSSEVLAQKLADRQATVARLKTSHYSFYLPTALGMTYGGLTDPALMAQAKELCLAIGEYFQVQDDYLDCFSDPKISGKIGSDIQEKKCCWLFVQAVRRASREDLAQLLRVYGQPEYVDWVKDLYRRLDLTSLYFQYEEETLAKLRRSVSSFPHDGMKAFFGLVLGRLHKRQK
# Experiment: FPPS enzymatic activity assay
# Type: biochemical
# Text: FPPS enzymatic activity assay on TgFPPS
compound,measurement,value
"CC(C)=CCC/C(C)=C/CSCC(P(=O)(O)O)P(=O)(O)O [compound 44, 1-[((E)-3,7-Dimethylocta-2,6-diene-1-thio)ethyl] 1,1-bisphosphonic Acid]",IC50,313 ± 27 nM
"CCCCNCC(F)(P(=O)(O)O)P(=O)(O)O [compound 55, 1-[(n-But-1-ylamino)ethyl]-1-fluoro-1,1-bisphosphonic Acid]",IC50,91 ± 32 nM
"C=C(C)CNCC(P(=O)(O)O)P(=O)(O)O [compound 19, 1-[(2-Methylall-1-ylamino)ethyl] 1,1-bisphosphonic Acid]",IC50,183 ± 63 nM
